Data: patent US8455620B2, “Cloning and expression of a novel phytase” (Feed Research Institute Chinese Academy of Agricultural …, priority 2006, dated 2013)
Entries after “also recorded” stand apart in the source; their conditions may differ. Like-named read-outs stand apart in the source and are kept apart here.

What was measured:
r-AppA = assay type: biochemical, Yersinia intermedia; conditions: 1 mM, pH 4.5
[1] = Specific activity of purified r-AppA, ferrous sulfate-molybdenum blue method; assay type: biochemical; conditions: r-AppA purified through Sephacryl S-200; pH 4.5; protein by Lowry method
Procedure: A total of 72 transformants were analyzed for phytase activity by ferrous sulfate-molybdenum blue method. 950 μl of substrate solution (4 mM sodium phytase in 0.25M sodium acetate buffer, pH5.0) was added to 50 μl diluted enzyme solution, which was reacted at 37° C. for 30 minutes. Then, 1 mL of 10% TCA (trichloroacetic acid) solution was added to stop the reaction. As a control, TCA solution was added into the enzyme solution to inactivate the enzyme and then substrate solution was added. After the reaction has terminated, 2 mL of reagent C (0.576M acid sulfate, 1% ammonium molybdate, 7.32% Ferrous sulfate.7H2O) was added, and left for 10 minutes. The intensity of the blue color was measured at 700 nm, and activities in enzyme solution and in a control were measured. 1 unit of phytase activity was determined to be the enzyme amount releasing 1 μmol of phosphate for 1 minute. […]
In order to determinate the specific activity, the concentration of the r-AppA purified through Sephacryl S-200 was determined by the Lowry method, and the enzyme activity of the r-AppA purified was determined by ferrous sulfate-molybdenum blue method at pH 4.5. As a result, the specific activity of r-AppA purified was 3960±248 U/mg, which is the highest specific activity, comparing to other phytases recorded previously.

[2] = Enzyme activity of r-AppA according to temperature and pH; assay type: biochemical
Procedure: A total of 72 transformants were analyzed for phytase activity by ferrous sulfate-molybdenum blue method. 950 μl of substrate solution (4 mM sodium phytase in 0.25M sodium acetate buffer, pH5.0) was added to 50 μl diluted enzyme solution, which was reacted at 37° C. for 30 minutes. Then, 1 mL of 10% TCA (trichloroacetic acid) solution was added to stop the reaction. As a control, TCA solution was added into the enzyme solution to inactivate the enzyme and then substrate solution was added. After the reaction has terminated, 2 mL of reagent C (0.576M acid sulfate, 1% ammonium molybdate, 7.32% Ferrous sulfate.7H2O) was added, and left for 10 minutes. The intensity of the blue color was measured at 700 nm, and activities in enzyme solution and in a control were measured. 1 unit of phytase activity was determined to be the enzyme amount releasing 1 μmol of phosphate for 1 minute. Two days after methanol induction, 11 transformants out of 72 produced phytase activity from 48 to 270 U/mL of medium. Obviously, the ORF obtained above, was a novel gene, which encoded a polypeptide with phytase activity. The polypeptide with phytase activity, which encoded by mature region of OFR, was named r-AppA.
(§1) The r-AppA purified through Sephacryl S-200 was investigated an enzyme activity of phytase, according to temperature and pH. The effect of pH on phytase activity was determined using the following buffer solutions: glycine-HCl, pH 1.5-3.5; Na acetate-acetic acid, pH 3.5-6.0; Tris-HCl, pH 6.0-8.5, and glycine-NaOH, pH 8.5-10. All buffers used for dilution contained 0.05% BSA and 0.05% Triton. As is shown in FIG. 2, the enzyme activity varied with pH. […] 70% of the enzyme activity was still maintained at pH 2.5, and 65% of the enzyme activity was still maintained at pH 5.5. […] And over 70% activity still remained at pH 1.0-2.0.
(§2) As is shown in FIG. 3A, the enzyme activity varied with temperature. The temperature optima were determined at the pH optimum (pH 4.5) ranging the temperature values from 20 to 80° C. […] As is shown in FIG. 3B, when the enzyme was left at 80° C. for 10 minutes, over 50% of the activity was remained, and 40% of the activity was remained, at 80° C. for 1 hour. Compared to AppA from E. coli, which was widely used in feed industry as a feed additive, the r-AppA are higher stability at higher temperatures.

pH stability of r-AppA = assay type: physicochemical; conditions: 37° C.
Procedure: as §1

[3] = Heat stability of r-AppA at 80° C.; assay type: physicochemical
Procedure: as §2

pepsin = assay: Protease resistance of r-AppA, incubation with pepsin; assay type: biochemical; conditions: 0.025 mg/ml phytase, 0.1 mg/ml pepsin, 37° C., 5 min to 2 h
Procedure: (§3) To determine the protease resistance, the purified phytase (0.025 mg/ml) was incubated with 0.1 mg/ml of pepsin and trypsin at 37° C. And then, sample incubated was collected respectively at 5 min, 10 min, 20 min, 30 min, 1 h, and 2 hs.

trypsin = assay: Protease resistance of r-AppA, incubation with trypsin; assay type: biochemical; conditions: 0.025 mg/ml phytase, 0.1 mg/ml trypsin, 37° C., 5 min to 2 h
Procedure: as §3

Compound: [Fe+2] [Fe]
- Enzyme activity of r-AppA (control = 100) (r-AppA): 47
- effect on enzyme activity of r-AppA, in words (r-AppA; listed as Fe^2+): obviously inhibited; also recorded: strongly inhibited

Compound: [Na+] [Na]
- Enzyme activity of r-AppA (control = 100) (r-AppA): 95

Compound: [Li+] [Li]
- Enzyme activity of r-AppA (control = 100) (r-AppA): 95

Compound: CCCCCCCCCCCCOS(=O)(=O)[O-].[Na+] [SDS]
- Enzyme activity of r-AppA (control = 100) (r-AppA): 9
- effect on enzyme activity of r-AppA, in words (r-AppA): almost lost

Compound: [Mn+2] [Mn]
- Enzyme activity of r-AppA (control = 100) (r-AppA): 104
- effect on enzyme activity of r-AppA, in words (r-AppA): weakly enhanced

Compound: r-AppA: polypeptide with phytase activity encoded by mature region of the ORF from Yersinia intermedia H-27, expressed in Pichia pastoris (SEQ ID NO: 3)
- specific activity [1]: 3960±248 U/mg
- enzyme activity maintained (relative to maximum) ([2]; at pH 2.5): 70%
- temperature of highest activity (optimal temperature) ([2]; at pH 4.5, 20 to 80° C.): 55 °C
- enzyme activity maintained (relative to maximum) ([2]; at pH 5.5): 65%
- pH of highest activity (optimal pH) ([2]; buffers pH 1.5-10): 4.5
- activity remained (pH stability) (pH stability of r-AppA; pH 1.0-2.0, 2 hours): over 70%
- activity remained (pH stability) (pH stability of r-AppA; pH 2.5-10, 2 hours): over 85%
- activity remained (heat stability) ([3]; 80° C. for 10 minutes): over 50%
- activity remained (heat stability) ([3]; 80° C. for 1 hour): 40%
- phytase activity after incubation with pepsin (pepsin): not significantly changed
- phytase activity after incubation with pepsin (pepsin; listed as phytase): strong resistance
- phytase activity after incubation with trypsin (trypsin): not significantly changed
- phytase activity after incubation with trypsin (trypsin; listed as phytase): strong resistance

Compound: [Co+2] [Co]
- Enzyme activity of r-AppA (control = 100) (r-AppA): 93

Compound: [Mg+2] [Mg]
- Enzyme activity of r-AppA (control = 100) (r-AppA): 94

Compound: [Ca+2] [Ca]
- Enzyme activity of r-AppA (control = 100) (r-AppA): 98

Compound: [Ag+] [Ag]
- Enzyme activity of r-AppA (control = 100) (r-AppA): 84

Compound: [Zn+2] [Zn]
- Enzyme activity of r-AppA (control = 100) (r-AppA): 44
- effect on enzyme activity of r-AppA, in words (r-AppA; listed as Zn^2+): obviously inhibited; also recorded: strongly inhibited

Compound: [K+] [K]
- Enzyme activity of r-AppA (control = 100) (r-AppA): 99

Compound: O=C(O)CN(CCN(CC(=O)O)CC(=O)O)CC(=O)O [EDTA]
- Enzyme activity of r-AppA (control = 100) (r-AppA): 101
- effect on enzyme activity of r-AppA, in words (r-AppA): not significantly changed

Compound: [Cu+2] [Cu]
- Enzyme activity of r-AppA (control = 100) (r-AppA): 61
- effect on enzyme activity of r-AppA, in words (r-AppA; listed as Cu^2+): obviously inhibited; also recorded: strongly inhibited

Compound: [Ni+2] [Ni]
- Enzyme activity of r-AppA (control = 100) (r-AppA): 98
